Laboratory results reported in patent publication US20220387383A1 (University of South Africa, priority 2019, published 2022).
pIC50: −log10 of the molar value. “Also recorded” adds a separate entry of the source. Read-outs that look alike come from different tables or passages of the source. Values belong to the molecule of their own block, whether it stands above or below them.

Experiments:
cholesterol absorption = conditions: reported experiments with the initial drug lead; cited from earlier work
Mdm2 = Mdm2 (Homo sapiens, UniProt Q00987); conditions: Warner et al. 2012; cited from earlier work
[1] = literature, in words, cited from earlier work
[2] = tested on: A375 human malignant melanoma cells; test: MTT assay for cell viability, A375 malignant melanoma cells; type: cell-based; conditions: for pIC50: A375, MTT, 48 hours, nonlinear regression, read-out: IC50, growth inhibition of melanoma cell line
Protocol: The A375 human malignant melanoma cells, PANC-1 pancreatic cancer cells and HEK293 human embryonic kidney cells were cultured in media containing 89% DMEM, 10% FBS and 1% penicillin-streptomycin. Once confluent, the cells were washed thrice with 1×PBS and detached from T75 flasks by incubating the cells with 2 mL trypsin-EDTA for 5-10 minutes at 37° C. 2 mL DMEM was added to the cells to stop the reaction of trypsin-EDTA. […] The intensity of this colour is proportional to the state of metabolic activity in the cells and therefore the extent of cell viability. MTT is therefore used to measure the extent to which the drugs are toxic. PANC-1 pancreatic cancer, A375 malignant melanoma and HEK293 human embryonic kidney cell lines were cultured to confluence in CytoOne T75 vented cell culture flasks (USA Scientific). The cells were counted using a haemocytometer and passaged/plated into CytoOne 96 well plates (USA Scientific). Approximately 5 000 cells per 200 μl were plated. The plates were incubated overnight to allow for attachment. The medium was removed after overnight incubation. […] After incubation for 48 hours, 20 μL of MTT reagent was added and incubated for 4 hours. Approximately 200 μL of the solubilisation reagent was added to each well and incubated overnight. The MTT assay was performed using the cell proliferation kit I (MTT) (Roche, Switzerland) by following the instructions in the manual. Absorbance readings were measured at 570 nm using a 96 well plate reader. The percentage of viable cells in treated and untreated cultures was calculated and compared. All statistical analyses were performed using Prism GraphPad Software (San Diego, Calif. 92108, USA). The cell viability data was expressed as the mean±standard deviation (SD) from three independent experiments. The IC50 values were calculated using the non-linear regression test which briefly involves conversion of the ezetimibe concentrations to log values. The log values were matched with their corresponding cell viability percentages. The one sample T-test and Wilcoxon Signed Rank Test were used to determine the statistical difference between the cell viability percentage in treated cells.

[3] = tested on: PANC-1 pancreatic cancer cells; test: MTT assay for cell viability, PANC-1 pancreatic cancer cells; type: cell-based; conditions: Homo sapiens; PANC-1, MTT, 48 hours
Protocol: (§1) The A375 human malignant melanoma cells, PANC-1 pancreatic cancer cells and HEK293 human embryonic kidney cells were cultured in media containing 89% DMEM, 10% FBS and 1% penicillin-streptomycin. Once confluent, the cells were washed thrice with 1×PBS and detached from T75 flasks by incubating the cells with 2 mL trypsin-EDTA for 5-10 minutes at 37° C. 2 mL DMEM was added to the cells to stop the reaction of trypsin-EDTA. […] The intensity of this colour is proportional to the state of metabolic activity in the cells and therefore the extent of cell viability. MTT is therefore used to measure the extent to which the drugs are toxic. PANC-1 pancreatic cancer, A375 malignant melanoma and HEK293 human embryonic kidney cell lines were cultured to confluence in CytoOne T75 vented cell culture flasks (USA Scientific). The cells were counted using a haemocytometer and passaged/plated into CytoOne 96 well plates (USA Scientific). […] Absorbance readings were measured at 570 nm using a 96 well plate reader. The percentage of viable cells in treated and untreated cultures was calculated and compared. […] The cell viability data was expressed as the mean±standard deviation (SD) from three independent experiments. The IC50 values were calculated using the non-linear regression test which briefly involves conversion of the ezetimibe concentrations to log values. […]

[4] = tested on: HEK293 human embryonic kidney cells; test: MTT assay for cell viability, HEK293 normal embryonic kidney cells; type: cell-based; conditions: 0.1-200 μM, 48 hours
Protocol: as §1

[5] = cited from earlier work
[6] = literature, in words, cited from earlier work; remark: listed apart in the source
[7] = ezetimibe and/or the glucuronide metabolite

Sequence of Mdm2 (Q00987 whole entry): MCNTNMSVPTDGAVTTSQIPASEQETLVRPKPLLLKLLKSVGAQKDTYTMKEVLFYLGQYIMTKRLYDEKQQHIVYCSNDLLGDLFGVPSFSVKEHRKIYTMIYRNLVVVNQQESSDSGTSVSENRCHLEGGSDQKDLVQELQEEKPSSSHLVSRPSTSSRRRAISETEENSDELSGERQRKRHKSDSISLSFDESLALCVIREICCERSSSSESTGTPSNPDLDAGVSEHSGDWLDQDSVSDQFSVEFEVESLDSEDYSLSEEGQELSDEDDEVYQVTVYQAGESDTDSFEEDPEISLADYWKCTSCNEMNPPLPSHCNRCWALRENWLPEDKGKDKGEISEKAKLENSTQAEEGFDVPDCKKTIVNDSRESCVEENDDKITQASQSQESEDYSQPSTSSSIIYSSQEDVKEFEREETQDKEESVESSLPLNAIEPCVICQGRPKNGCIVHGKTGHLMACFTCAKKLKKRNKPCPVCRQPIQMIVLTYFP

SMILES: COc1ccc([C@@H]2[C@@H](CCCc3ccccc3)C(=O)N2c2ccc(OC)cc2)cc1 [SCH48461]
- Inhibition of cholesterol absorption (cholesterol absorption): 70%

SMILES: COc1ccc(C2=NC(c3ccc(Cl)cc3)C(c3ccc(Cl)cc3)N2C(=O)N2CCNC(=O)C2)c(OC(C)C)c1 (stereo not shown) [nutlin-3a, 4-(4,5-bis(4-chlorophenyl)-2-(2-isopropoxy-4-methoxyphenyl)-4,5-dihydro-1H-imidazole-1-carbonyl) piperazin-2-one]
- Estimated free energy of binding, kcal/mol (Patch Dock) (Mdm2): −7.7+/−0.6 kcal/mol (Warner et al. 2012)
- Bioavailability [1]: poor bioavailability

- pIC50 [2]: 4.51
- pIC50 ([2]; Homo sapiens, A-375, 48 h): 4.51
- pIC50 [3]: 4.15
SMILES: O=C1[C@H](CC[C@H](O)c2ccc(F)cc2)[C@@H](c2ccc(O)cc2)N1c1ccc(F)cc1 [Ezetimibe]
- inhibition at 200 µM ([2]; Homo sapiens, A-375, A375, highest concentration, 200 μM, read-out: Inhibition of the melanoma cell line): > 80%
- inhibition at 1 µM ([2]; Homo sapiens, A-375, A375, lowest concentration tested, 1 μM, read-out: Inhibition of the melanoma cell line): ~20%
- Concentrations toxic to cancer cells ([2]; cancer cells (A375 and PANC-1), MTT): 20 to 80 µM
- Toxicity to normal human embryonic kidney cell line [4]: non-toxic; also recorded: does not exhibit toxicity
- Fraction metabolised in the intestine to the glucuronide metabolite ([5]; by UGT 1A1, 1A3 and 2B15): Up to 80%
- Excreted in the faeces [5, 7]: 90%
- Excreted in urine [5, 7]: 10%
- Aqueous Solubility [6]: Poor
- Aqueous Solubility ([6]; listed as ezetimibe): highly insoluble
- Bioavailability [1]: poor bioavailability; also recorded: Almost negligible
- Bioavailability ([1]; listed as ezetimibe): low bioavailability

SMILES: COc1cc(/C=C/C(=O)CC(=O)/C=C/c2ccc(O)c(OC)c2)ccc1O [Curcumin]
- Bioavailability [1]: Poor
- Bioavailability ([1]; listed as curcumin): poor bioavailability; also recorded: low bioavailability
